Here are results for two compounds from PMC6172411, “Development of a Quantitative Assay for the Characterization of Human Collectin-11 (CL-11, CL-K1)” (Frontiers in Immunology, 2018).

For assay [1], the target named is T1, rCL-11 (recombinant collectin-11, CL-11, CL-K1) (Homo sapiens, UniProt Q9BWP8).
T1 construct: gene COLEC11; no tag stated; homomeric disulfide-linked oligomers of trimers, monomer ~34 kDa reduced
Nature of the assay: solid-phase competition ELISA, inhibition of rCL-11 binding to coated mannan. Particulars: Ca2+ (TBS-Tw-Ca, 2.5 mM CaCl2), rCL-11 1 ug/ml, mannan-coated plate, room temperature.

In assay [2] the target is T1, rCL-11 (recombinant collectin-11, CL-11, CL-K1). Kind of assay: co-precipitation with D-mannose-agarose (western blot) and solid-phase binding to coated D-mannose-BSA. Particulars: Ca2+ required (no binding in EDTA or Mg-EGTA); D-mannose presented as immobilised agarose or BSA conjugate; room temperature.

T1 sequence (Q9BWP8 26-271): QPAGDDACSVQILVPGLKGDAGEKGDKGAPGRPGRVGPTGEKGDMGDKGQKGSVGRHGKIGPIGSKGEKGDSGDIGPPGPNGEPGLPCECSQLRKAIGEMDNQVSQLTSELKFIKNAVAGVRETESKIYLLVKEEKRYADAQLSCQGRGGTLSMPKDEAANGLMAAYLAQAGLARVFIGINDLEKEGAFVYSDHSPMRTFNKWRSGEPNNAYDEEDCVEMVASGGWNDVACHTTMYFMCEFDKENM

Consider `C[C@@H]1OC(O)[C@@H](O)[C@H](O)[C@@H]1O` (stereo partly drawn) [L-fucose], for which the IC50 in assay [1] came to 36.5 mM.

For `OC[C@H]1OC(O)[C@@H](O)[C@@H](O)[C@@H]1O` (stereo partly drawn) [D-mannose], the “co-precipitation with D-mannose-agarose (western blot) and solid-phase binding t” value in assay [2] was “bound to D-mannose and mannan in the presence of calcium”.
